Here are results for 11 molecules from PMC7918823, “Novel Potent and Selective DPP-4 Inhibitors: Design, Synthesis and Molecular Docking Study of Dihydropyrimidine Phthalimide Hybrids” (Pharmaceuticals, 2021).

Data set [1] deals with HFD-induced type 2 diabetic rats. Kind of data set: Oral glucose tolerance test after chronic treatment in HFD-induced type 2 diabetic rats. Format: in vivo, SD rats. The following applies: for Glucose tolerance (AUC of OGTT versus non-treated diabetic group): 10 mg/kg/day oral, in absence of MET; for Reduction of AUC of OGTT by MET addition: hybrid 10 mg/kg/day oral plus MET 150 mg/kg/day. From the text:
After acclimatization period, rats were randomly divided into 25 groups, each of seven rats. The first group was normal control group which maintained on normal rat chow for the entire experiment period (16 weeks). The second group served as diabetic control group in which T2DM was induced by HFD that consisted of casein (30%), raw beef fat (Suet, 40%), wheat flour (7%), glucose (10%), salt mixture (6%), vitamin mixture (3%), and bran (4%), for 16 weeks. […] At the end of treatment regimen that lasted for four weeks; using our synthesized hybrids 10a–j with and without MET, rats were fasted overnight (12 h) with free access to water. Oral glucose tolerance test (OGTT) was performed as previously described. […] Roche Diagnostics, Rotkreuz, Switzerland).

Data set [2] is described as follows: Antioxidant activity (DPPH method). The following applies: 100 µM compound, 100 µM DPPH, 20 min, mean ± SE of four replicates. How it is done: DPPH (1,1-diphenyl-2-picrylhydrazyl) free radical is stable at rt and has a purple colour with a maximum absorption at 517 nm. This free radical is reduced by antioxidant molecules into 1,1-diphenyl-2-picrylhydrazine with resultant discolouration of free radical; this discolouration is stoichiometric with regard to the captured electrons. Accordingly, the fluctuation in the absorbance is an indicator for the antioxidant activity. Our synthesized hybrids 10a–j (100 µM) were mixed with DPPH (100 µM) and left for 20 min at rt, the absorbance was measured at 517 nm.
On the technique in general: Loss of DPPH colour is used to gauge radical scavenging.

For another data set, the target named is DPP-9 (Homo sapiens, UniProt Q86TI2). Description: In vitro DPP-9 inhibition assay. Format: biochemical. The conditions noted are these: assay buffer pH 8. How it is done:
(§1) DPP-4 inhibition was assessed, as previously described, based on a continuous fluorometric assay method in which the substrate Gly-Pro-AMC (Gly-Pro-7-amido-4-methylcoumarin hydrobromide) was split by DPP-4 to release fluorescent aminomethyl coumarin (AMC). The liberated AMC was continuously monitored using an excitation wavelength of 360 nm and an emission wavelength of 460 nm using an EnVision microplate reader (PerkinElmer, Waltham, MA, USA). The reaction mixture consisted of different concentrations of the synthesized hybrids 10a–j, 20 µU/µL of recombinant human DPP-4 (Sigma Aldrich, St. Louis, MO, USA), 10 µM Gly-Pro-AMC (Sigma Aldrich, St. Louis, MO, USA) and assay buffer (150 mM NaCl, 25 mM 4-(2-hydroxyethyl)-1-piperazineethanesulfonic acid (HEPES), 0.12 mg/ml bovine serum albumin (BSA)) and pH of 7.5. The assay was carried out in quadruplicate. IC50 was calculated using GraphPad Prism 8 software (San Diego, CA, USA). Similar to the DPP-4 assay, DPP-8 and DPP-9 inhibition assay was performed and the pH of the assay buffer was 8.

Another data set has as its target T1, recombinant human DPP-4 (Homo sapiens, UniProt P27487).
T1 construct: purchased Sigma Aldrich
Description: In vitro DPP-4 inhibition assay (continuous fluorometric, Gly-Pro-AMC). Format: biochemical. The following applies: for IC50: recombinant human DPP-4, mean ± SE of four replicates; for Fold DPP-4 inhibitory activity relative to alogliptin: from IC50 values, versus alogliptin. On the procedure:
as §1

In the next data set the target is DPP-8 (Homo sapiens, UniProt Q6V1X1). Description: In vitro DPP-8 inhibition assay. Format: biochemical. The conditions noted are these: assay buffer pH 8. How it is done: as §1
The nature of data set [3]: Cytotoxicity test (MTT assay). Format: cell-based. The following applies: human, normal hepatic LO2 cells, read-out: cell viability. How it is done: We assessed any possible cytotoxic effect of our synthesized hybrids 10a–j on hepatic LO2 cells using MTT assay. The cells, in DMEM (Gibco, Invitrogen), were seeded in 96 well plates at density of 1 × 10^4/well. The synthesized compounds were added to the cells and incubated for 48 h at 37 °C and 5% CO2. Then, MTT reagent was added and the cells were re-incubated for further 4 h. After discarding the supernatants, the formed formazan crystals were dissolved in DMSO. The intensity of color was assessed using microplate reader (Bio-Rad Laboratories, Hercules, CA, USA) at 490 nm wavelength.
(In general: Tetrazolium assays rely on reduction of a dye to a coloured formazan, in cell work by metabolically active cells.)

Another data set deals with T2, blood DPP-4 activity (Rattus norvegicus, UniProt P14740).
T2 construct: from tissue; host or cells: plasma of male SD rats
Description: In vivo DPP-4 inhibition assay (blood DPP-4 activity). The conditions noted are these: SD rats, single oral dose 10 mg/kg. On the procedure: The assay was performed using male SD rats (n = 3 per group), as previously described. The synthesized hybrids 10a–j were suspended in […] cellulose (CMC) and administrated orally at a single dose of 10 mg/kg.
Blood samples were collected at time points 0, 6, 12, 24, 36 and 48 h. Plasma samples were extracted and kept at −20 °C until analysis time. Similar to the in vitro DPP-4 assay principle, plasma samples were mixed with equal volumes of Gly-Pro-AMC in assay buffer (100 mM HEPES, 0.1 mg/ml BSA) and pH of 7.5. The liberated AMC was continuously monitored using an excitation wavelength of 360 nm and an emission wavelength of 460 nm using EnVision microplate reader (PerkinElmer, Waltham, MA, USA). The data were expressed as% blood DPP-4 activity.

The mark [4] stands for this setting: combined with MET 150 mg/kg/day oral, four weeks (hybrid 10 mg/kg/day, alogliptin 20 mg/kg/day).

The term IC50 denotes the concentration needed to halve the response being measured. The viability is the share of living cells, or the viability signal relative to a control.

T1 sequence (P27487 whole entry): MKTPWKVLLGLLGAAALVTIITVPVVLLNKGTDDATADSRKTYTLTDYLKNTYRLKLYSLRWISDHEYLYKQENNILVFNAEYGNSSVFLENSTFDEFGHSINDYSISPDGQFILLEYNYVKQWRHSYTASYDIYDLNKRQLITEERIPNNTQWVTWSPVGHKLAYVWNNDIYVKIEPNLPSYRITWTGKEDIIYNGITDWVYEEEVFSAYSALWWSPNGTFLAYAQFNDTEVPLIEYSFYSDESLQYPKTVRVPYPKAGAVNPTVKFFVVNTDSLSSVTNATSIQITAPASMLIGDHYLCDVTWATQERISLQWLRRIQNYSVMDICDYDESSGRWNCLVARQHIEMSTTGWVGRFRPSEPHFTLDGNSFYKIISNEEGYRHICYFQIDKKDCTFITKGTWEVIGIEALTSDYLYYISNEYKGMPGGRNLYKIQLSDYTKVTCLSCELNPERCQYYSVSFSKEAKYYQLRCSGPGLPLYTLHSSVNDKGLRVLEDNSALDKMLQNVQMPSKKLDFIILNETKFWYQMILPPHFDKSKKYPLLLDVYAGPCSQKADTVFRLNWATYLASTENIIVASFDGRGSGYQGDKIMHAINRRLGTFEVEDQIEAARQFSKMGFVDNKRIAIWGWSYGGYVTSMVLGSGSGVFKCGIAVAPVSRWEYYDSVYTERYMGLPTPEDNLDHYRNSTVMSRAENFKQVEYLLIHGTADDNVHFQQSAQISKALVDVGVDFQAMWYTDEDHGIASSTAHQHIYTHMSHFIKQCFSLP
T2 sequence (P14740 37-767 limits assumed): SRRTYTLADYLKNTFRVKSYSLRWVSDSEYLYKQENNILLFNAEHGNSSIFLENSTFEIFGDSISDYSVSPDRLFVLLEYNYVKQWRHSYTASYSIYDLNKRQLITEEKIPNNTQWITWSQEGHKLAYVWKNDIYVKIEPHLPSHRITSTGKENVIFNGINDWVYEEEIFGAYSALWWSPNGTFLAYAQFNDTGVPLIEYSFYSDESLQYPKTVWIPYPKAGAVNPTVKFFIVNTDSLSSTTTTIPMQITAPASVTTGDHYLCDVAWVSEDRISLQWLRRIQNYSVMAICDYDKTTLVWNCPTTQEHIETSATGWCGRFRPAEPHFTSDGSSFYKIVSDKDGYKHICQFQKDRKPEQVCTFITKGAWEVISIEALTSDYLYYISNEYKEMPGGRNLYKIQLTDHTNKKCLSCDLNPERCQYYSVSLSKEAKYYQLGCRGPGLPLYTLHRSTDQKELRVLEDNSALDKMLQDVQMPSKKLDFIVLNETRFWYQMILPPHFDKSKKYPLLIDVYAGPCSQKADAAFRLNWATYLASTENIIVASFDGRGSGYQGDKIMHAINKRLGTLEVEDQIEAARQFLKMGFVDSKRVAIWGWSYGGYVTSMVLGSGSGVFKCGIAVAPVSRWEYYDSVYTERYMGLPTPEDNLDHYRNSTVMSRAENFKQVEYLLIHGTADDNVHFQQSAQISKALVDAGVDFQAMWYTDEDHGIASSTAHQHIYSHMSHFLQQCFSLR
Chain of DPP-9 (Q86TI2 whole entry): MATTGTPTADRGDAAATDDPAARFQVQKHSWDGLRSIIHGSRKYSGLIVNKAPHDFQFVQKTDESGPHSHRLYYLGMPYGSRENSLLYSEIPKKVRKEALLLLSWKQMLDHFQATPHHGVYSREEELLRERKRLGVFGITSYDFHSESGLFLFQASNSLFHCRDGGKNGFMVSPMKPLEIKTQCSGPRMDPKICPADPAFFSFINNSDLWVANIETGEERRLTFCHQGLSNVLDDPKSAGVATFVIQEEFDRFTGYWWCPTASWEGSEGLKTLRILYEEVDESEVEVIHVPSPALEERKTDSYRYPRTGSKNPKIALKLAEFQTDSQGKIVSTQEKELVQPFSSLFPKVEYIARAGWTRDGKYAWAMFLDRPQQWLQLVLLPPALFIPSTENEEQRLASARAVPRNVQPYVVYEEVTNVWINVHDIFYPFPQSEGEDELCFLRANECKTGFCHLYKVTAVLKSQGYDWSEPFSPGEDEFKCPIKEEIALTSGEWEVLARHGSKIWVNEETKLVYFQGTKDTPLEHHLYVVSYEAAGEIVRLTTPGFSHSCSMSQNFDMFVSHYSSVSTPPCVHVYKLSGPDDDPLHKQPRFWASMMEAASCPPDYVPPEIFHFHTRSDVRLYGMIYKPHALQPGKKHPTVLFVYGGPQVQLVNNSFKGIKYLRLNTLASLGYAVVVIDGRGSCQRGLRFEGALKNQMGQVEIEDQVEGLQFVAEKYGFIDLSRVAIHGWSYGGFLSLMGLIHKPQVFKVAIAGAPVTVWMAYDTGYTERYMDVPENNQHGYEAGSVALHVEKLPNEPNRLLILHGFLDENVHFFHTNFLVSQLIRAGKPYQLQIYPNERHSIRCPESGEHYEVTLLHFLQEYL
Chain of DPP-8 (Q6V1X1 whole entry): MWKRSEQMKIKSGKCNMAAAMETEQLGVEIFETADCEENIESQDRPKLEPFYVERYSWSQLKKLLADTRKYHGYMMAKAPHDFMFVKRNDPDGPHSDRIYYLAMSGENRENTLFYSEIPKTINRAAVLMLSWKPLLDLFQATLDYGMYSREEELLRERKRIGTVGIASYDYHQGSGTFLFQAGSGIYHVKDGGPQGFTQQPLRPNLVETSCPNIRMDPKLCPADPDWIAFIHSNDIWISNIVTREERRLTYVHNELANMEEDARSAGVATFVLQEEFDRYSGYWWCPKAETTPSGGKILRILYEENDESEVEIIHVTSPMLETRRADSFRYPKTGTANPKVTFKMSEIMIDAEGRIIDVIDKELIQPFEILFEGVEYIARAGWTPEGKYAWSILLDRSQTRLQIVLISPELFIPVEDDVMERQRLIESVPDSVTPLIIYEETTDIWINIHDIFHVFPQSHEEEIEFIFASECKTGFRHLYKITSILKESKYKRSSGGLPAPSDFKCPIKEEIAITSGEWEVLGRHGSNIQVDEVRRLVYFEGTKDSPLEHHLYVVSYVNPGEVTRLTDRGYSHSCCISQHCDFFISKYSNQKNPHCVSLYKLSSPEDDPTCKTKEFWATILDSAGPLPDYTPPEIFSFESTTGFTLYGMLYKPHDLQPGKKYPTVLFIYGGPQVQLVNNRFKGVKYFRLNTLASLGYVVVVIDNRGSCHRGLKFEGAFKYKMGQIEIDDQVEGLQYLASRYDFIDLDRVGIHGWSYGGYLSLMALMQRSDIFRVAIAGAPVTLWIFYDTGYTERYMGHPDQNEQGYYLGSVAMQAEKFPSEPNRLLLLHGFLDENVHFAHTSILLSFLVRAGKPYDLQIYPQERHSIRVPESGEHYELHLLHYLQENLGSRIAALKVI

`Cn1c(=O)cc(N2CCC[C@@H](N)C2)n(Cc2ccccc2C#N)c1=O` [Alogliptin, reference compound]: the “AUC of OGTT” value in data set [1] (setting [4]) was determined as 15451 ± 110 mg·min/dL; in data set [1] (without MET, alogliptin 20 mg/kg/day oral, four weeks) it was 20835 ± 146 mg·min/dL.
As to `O=C(SC1=NC(c2ccccc2)=CC(c2ccccc2)N1)c1ccccc1CN1C(=O)c2ccccc2C1=O` (stereo not drawn) [Compound 10a, S-(4,6-Diphenyl-1,6-dihydropyrimidin-2-yl)2-((1,3-dioxoisoindolin-2-yl)methyl)benzothioate], in data set [2], the “% DPPH Scavenging” value is recorded as 73.85 ± 2.46%. Further, the IC50 is more than 100 µM at DPP-9, 0.0197 ± 0.00127 µM on recombinant human DPP-4 and more than 100 µM on DPP-8.
Take `COc1ccc(C2C=C(c3ccc(Cl)cc3)N=C(SC(=O)c3ccccc3CN3C(=O)c4ccccc4C3=O)N2)cc1` (stereo not drawn) [Compound 10b, S-(4-(4-Chlorophenyl)-6-(4-methoxyphenyl)-1,6-dihydropyrimidin-2-yl)2-((1,3-dioxoisoindolin-2-yl)methyl)benzothioate]: the “% DPPH Scavenging” value in data set [2] was determined as 74.28 ± 1.69%. The values for the IC50 at DPP-9, on recombinant human DPP-4 and at DPP-8 were more than 100 µM, 0.00378 ± 0.00023 µM and more than 100 µM, respectively. Moreover, the “Fold DPP-4 inhibitory activity relative to alogliptin” value at recombinant human DPP-4 is 1.5 fold.
Consider `O=C(SC1=NC(c2ccc(Cl)cc2)=CC(c2ccc(Cl)cc2)N1)c1ccccc1CN1C(=O)c2ccccc2C1=O` (stereo not drawn) [Compound 10c, S-(4,6-Bis(4-chlorophenyl)-1,6-dihydropyrimidin-2-yl)2-((1,3-dioxoisoindolin-2-yl)methyl)benzothioate], for which the viability at 48 h, 30 µM in data set [3] (30 µM) amounted to 72.6%. For the same molecule, the viability at 48 h, 50 µM in data set [3] came out at 72.5%. The “% DPPH Scavenging” value in data set [2] turned out to be 52.39 ± 0.93%. The IC50 against DPP-9 is more than 100 µM; at recombinant human DPP-4, 0.0147 ± 0.00082 µM; at DPP-8, more than 100 µM.
For `Cc1ccc(C2=CC(c3ccc(Cl)cc3)NC(SC(=O)c3ccccc3CN3C(=O)c4ccccc4C3=O)=N2)cc1` (stereo not drawn) [Compound 10d, S-(6-(4-Chlorophenyl)-4-(p-tolyl)-1,6-dihydropyrimidin-2-yl)2-((1,3-dioxoisoindolin-2-yl)methyl)benzothioate], in data set [2], the “% DPPH Scavenging” value stood at 80.16 ± 1.38%. The IC50 is more than 100 µM at DPP-9, 0.00219 ± 0.00014 µM on recombinant human DPP-4 and more than 100 µM against DPP-8. Moreover, the “Fold DPP-4 inhibitory activity relative to alogliptin” value on recombinant human DPP-4 is given as 2.6 fold.
As for `CN(C)c1ccc(C2C=C(c3ccc(Br)cc3)N=C(SC(=O)c3ccccc3CN3C(=O)c4ccccc4C3=O)N2)cc1` (stereo not drawn) [Compound 10e, S-(4-(4-Bromophenyl)-6-(4-(dimethylamino)phenyl)-1,6-dihydropyrimidin-2-yl) 2-((1,3-dioxoisoindolin-2-yl)methyl)benzothioate], in data set [1] (four weeks), the “Glucose tolerance (AUC of OGTT versus non-treated diabetic group)” value was “significantly improved glucose tolerance above alogliptin” and the “Reduction of AUC of OGTT by MET addition” value is 22.82%. For the same molecule, the “% DPPH Scavenging” value in data set [2] was determined as 87.21 ± 2.58%. The molecule also yielded an IC50 against DPP-9 of more than 100 µM. Besides, at recombinant human DPP-4, the “Fold DPP-4 inhibitory activity relative to alogliptin” value is 4 fold and the IC50 stood at 0.00142 ± 0.00011 µM. At DPP-8, this molecule displayed an IC50 of more than 100 µM.
Regarding `O=C(SC1=NC(c2ccc(Cl)cc2)=CC(c2ccccc2)N1)c1ccccc1CN1C(=O)c2ccccc2C1=O` (stereo not drawn) [Compound 10f, S-(4-(4-Chlorophenyl)-6-phenyl-1,6-dihydropyrimidin-2-yl)2-((1,3-dioxoisoindolin-2-yl)methyl)benzothioate], the “% DPPH Scavenging” value in data set [2] was determined as 57.63 ± 2.14%. In addition, the IC50 was more than 100 µM on DPP-9, 0.0315 ± 0.00241 µM at recombinant human DPP-4 and more than 100 µM against DPP-8.
With `Nc1ccc(C2=CC(c3ccc(Cl)cc3)NC(SC(=O)c3ccccc3CN3C(=O)c4ccccc4C3=O)=N2)cc1` (stereo not drawn) [Compound 10h, S-(4-(4-Aminophenyl)-6-(4-chlorophenyl)-1,6-dihydropyrimidin-2-yl)2-((1,3-dioxoisoindolin-2-yl)methyl)benzothioate], in data set [3], the viability at 48 h, 50 µM stood at 77.5%. Also, the “% DPPH Scavenging” value in data set [2] stood at 85.74 ± 2.76%. The IC50 against DPP-9 is more than 100 µM; on recombinant human DPP-4 it was 0.0104 ± 0.00054 µM; at DPP-8 it was more than 100 µM.
Consider `O=C(SC1=NC(c2ccc(Cl)cc2)=CC(c2ccco2)N1)c1ccccc1CN1C(=O)c2ccccc2C1=O` (stereo not drawn) [Compound 10i, S-(4-(4-Chlorophenyl)-6-(furan-2-yl)-1,6-dihydropyrimidin-2-yl)2-((1,3-dioxoisoindolin-2-yl)methyl)benzothioate], for which the “Glucose tolerance (AUC of OGTT versus non-treated diabetic group)” value in data set [1] (four weeks) is listed as “significantly improved glucose tolerance above alogliptin”. The “Reduction of AUC of OGTT by MET addition” value in data set [1] (four weeks) is 21.7%. Further, the viability at 48 h, 10 µM in data set [3] (10 µM) was 74.6%. Also, the “% DPPH Scavenging” value in data set [2] is 69.11 ± 1.44%. Also, the IC50 on DPP-9 is more than 100 µM; at recombinant human DPP-4, 0.00066 ± 4e-05 µM; against DPP-8, more than 100 µM. The DPP-4 blood activity on blood DPP-4 activity (12 h) was 18.8%; on blood DPP-4 activity (24 h), 49.9%; at blood DPP-4 activity (48 h) it was 76%. The “Fold DPP-4 inhibitory activity relative to alogliptin” value on recombinant human DPP-4 came to 8.6 fold.
For the molecule `Nc1ccc(C2=CC(c3cccc4ccccc34)NC(SC(=O)c3ccccc3CN3C(=O)c4ccccc4C3=O)=N2)cc1` (stereo not drawn) [Compound 10j, S-(4-(4-Aminophenyl)-6-(naphthalen-1-yl)-1,6-dihydropyrimidin-2-yl)2-((1,3-dioxoisoindolin-2-yl)methyl)benzothioate], the “% DPPH Scavenging” value in data set [2] was 93.52 ± 1.65%. Moreover, the IC50 against DPP-9 is more than 100 µM; at recombinant human DPP-4, 0.00735 ± 0.00036 µM; at DPP-8 it was more than 100 µM.
As for “S-(4-(4-Chlorophenyl)-6-(4-nitrophenyl)-1,6-dihydropyrimidin-2-yl)2-((1,3-dioxoisoindolin-2-yl)methyl)benzothioate [Compound 10g]”, in data set [1] (four weeks), the “Glucose tolerance (AUC of OGTT versus non-treated diabetic group)” value is recorded as “significantly improved glucose tolerance above alogliptin”. Moreover, the “AUC of OGTT” value in data set [1] (setting [4]) was found to be 13787 ± 201 mg·min/dL. Further, the “Reduction of AUC of OGTT by MET addition” value in data set [1] (four weeks) amounted to 22.93%. The “% DPPH Scavenging” value in data set [2] was 49.47 ± 1.08%. Besides, the IC50 is more than 100 µM on DPP-9, 0.00051 ± 3e-05 µM at recombinant human DPP-4 and more than 100 µM against DPP-8. Further, the DPP-4 blood activity at blood DPP-4 activity (12 h) came out at 18.45%; on blood DPP-4 activity (24 h), 47%; on blood DPP-4 activity (48 h), 73.3%. In addition, the “Fold DPP-4 inhibitory activity relative to alogliptin” value on recombinant human DPP-4 is given as 11.2 fold.
